Measurements reported in PubChem BioAssay (NCI).
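Protocol summary: plate cells (96-well), add compound at 5 concentrations, incubate 48 h, interpolate endpoints linearly. The concentration for 50% growth inhibition is given as GI50. TGI is the concentration that stops growth completely.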

How the values were obtained:
Test in all cases: NCI tumour cell line growth inhibition, 48 h
786-0 renal = system: 786-0 renal
A498 renal = system: A498 renal
A549 NSCLC = system: A549 NSCLC
ACHN renal = system: ACHN renal
BT-549 breast = system: BT-549 breast
CAKI-1 renal = system: CAKI-1 renal
CCRF-CEM leukemia = system: CCRF-CEM leukemia
COLO 205 colon = system: COLO 205 colon
DU-145 prostate = system: DU-145 prostate
EKVX NSCLC = system: EKVX NSCLC
HCC-2998 colon = system: HCC-2998 colon
HCT-116 colon = system: HCT-116 colon
HCT-15 colon = system: HCT-15 colon
HL-60(TB) leukemia = system: HL-60(TB) leukemia
HOP-62 NSCLC = system: HOP-62 NSCLC
HOP-92 NSCLC = system: HOP-92 NSCLC
HS 578T breast = system: HS 578T breast
IGROV1 ovarian = system: IGROV1 ovarian
K-562 leukemia = system: K-562 leukemia
KM12 colon = system: KM12 colon
LOX IMVI melanoma = system: LOX IMVI melanoma
M14 melanoma = system: M14 melanoma
MALME-3M melanoma = system: MALME-3M melanoma
MCF7 breast = system: MCF7 breast
MDA-MB-231 breast = system: MDA-MB-231 breast
MDA-MB-435 = system: MDA-MB-435
MDA-MB-468 breast = system: MDA-MB-468 breast
MOLT-4 leukemia = system: MOLT-4 leukemia

With `CC(C)(C)Nc1nc2cc(Cl)c(Cl)cc2nc1S(C)(=O)=O` the GI50 (786-0 renal) was 1.84 µM, the TGI (786-0 renal) was 3.47 µM and the GI50 (A498 renal) was 19.2 µM. The TGI (A498 renal) was 33.5 µM, the GI50 (A549 NSCLC) was 13.5 µM and the TGI (A549 NSCLC) was 27.6 µM. For the same compound, the GI50 (ACHN renal) was 1.75 µM, the TGI (ACHN renal) was 3.35 µM and the GI50 (BT-549 breast) was 1.74 µM. For the same compound, the TGI (BT-549 breast) was 3.41 µM, the GI50 (CAKI-1 renal) was 1.58 µM and the TGI (CAKI-1 renal) was 3.01 µM. The GI50 (CCRF-CEM leukemia) was 0.307 µM, the TGI (CCRF-CEM leukemia) was 3.77 µM and the GI50 (COLO 205 colon) was 1.7 µM. It also gave a TGI (COLO 205 colon) of 3.28 µM, a GI50 (DU-145 prostate) of 3.46 µM and a TGI (DU-145 prostate) of 12.1 µM. For the same compound, the GI50 (EKVX NSCLC) was 13.3 µM, the TGI (EKVX NSCLC) was 27 µM and the GI50 (HCC-2998 colon) was 8.7 µM. It also gave a TGI (HCC-2998 colon) of 20.9 µM, a GI50 (HCT-116 colon) of 1.67 µM and a TGI (HCT-116 colon) of 3.44 µM. For the same compound, the GI50 (HCT-15 colon) was 1.53 µM, the TGI (HCT-15 colon) was 3.03 µM and the GI50 (HL-60(TB) leukemia) was 4.03 µM. The TGI (HL-60(TB) leukemia) was 20.1 µM, the GI50 (HOP-62 NSCLC) was 14.9 µM and the TGI (HOP-62 NSCLC) was 29.2 µM. The GI50 (HOP-92 NSCLC) was 2 µM, the TGI (HOP-92 NSCLC) was 4.88 µM and the GI50 (HS 578T breast) was 7.29 µM. It also gave a TGI (HS 578T breast) of 35.2 µM, a GI50 (IGROV1 ovarian) of 12.2 µM and a TGI (IGROV1 ovarian) of 25.6 µM. For the same compound, the GI50 (K-562 leukemia) was 1.05 µM, the TGI (K-562 leukemia) was 3.21 µM and the GI50 (KM12 colon) was 7.82 µM. The TGI (KM12 colon) was 24.7 µM, the GI50 (LOX IMVI melanoma) was 1.35 µM and the TGI (LOX IMVI melanoma) was 2.72 µM. It also gave a GI50 (M14 melanoma) of 1.71 µM, a TGI (M14 melanoma) of 3.43 µM and a GI50 (MALME-3M melanoma) of 1.64 µM. It also gave a TGI (MALME-3M melanoma) of 3.09 µM, a GI50 (MCF7 breast) of 1.9 µM and a TGI (MCF7 breast) of 4.23 µM. The GI50 (MDA-MB-231 breast) was 3.11 µM, the TGI (MDA-MB-231 breast) was 8.94 µM and the GI50 (MDA-MB-435) was 1.88 µM. It also gave a TGI (MDA-MB-435) of 4.17 µM, a GI50 (MDA-MB-468 breast) of 1.64 µM and a TGI (MDA-MB-468 breast) of 3.13 µM. The GI50 (MOLT-4 leukemia) was 0.411 µM.
